We go through 3 molecules from US8293734B2, “Nitroimidazooxazine and nitroimidazooxazole analogues and their uses” (priority 2009, dated 2012).

Structures are written as SMILES. ≈ marks a conversion by molar mass, not a printed value.

Series [1] has as its system Trypanosoma cruzi amastigotes (Tulahuen C2C4 strain). The series can be described thus: Trypanosoma cruzi assay in infected L-6 cells. The class given is cell-based. As to conditions: L6, 96 h incubation, read-out: IC50 T. cruzi. The protocol: (§1) (c) Antiprotozoal screening. Compounds were evaluated for their activities against both Trypanosoma cruzi amastigotes and Leishmania donovani amastigotes (free or encapsulated in macrophages), according to the following protocols:
(i) Trypanosoma cruzi assay. L-6 cells (2×10^3) in medium (100 μL of RPMI 1640 supplemented with 2 mM L-glutamine plus 10% heat inactivated fetal calf serum) were seeded in 96-well microtitre plates (Costar™) and incubated at 37° C. (5% CO2) for 1d. A suspension (50 μL) of Trypanosoma cruzi trypomastigotes (5×10^3 of Tulahuen C2C4 strain, containing the β-galactosidase gene) was added, and the cells were incubated at 37° C. (5% CO2) for a further 48 h to establish the infection. The medium was removed and replaced by fresh medium and the infected cells were then incubated at 37° C. (5% CO2) for 96 h in either medium alone or in the presence of serial (3-fold) dilutions of test compounds (initially prepared as 10 mg/mL stock solutions in DMSO and diluted into medium). Benznidazole was employed as a standard in each assay. Following incubation, chlorophenol red glycoside (100 mM) in 0.1% Nonidet P40/PBS (50 μL) was added, and (after 6 h) the absorbance at 540 nm was measured and used to calculate the IC50 values.

A further series deals with M. tuberculosis Erdman. The series can be described thus: In vivo mouse acute TB infection assay. Details: species or system BALB/c mice. The settings on record: for In vivo efficacy vs PA-824: 100 mg/kg orally daily 5 days a week for 3 weeks, ratio of average lung CFU reduction to that of PA-824.
A further series relates to VERO cells (CCL-81). The series can be described thus: Mammalian cell cytotoxicity assay (tetrazolium dye). The class given is cell-based. As to conditions: Chlorocebus sabaeus, 72 h exposure, read-out: IC50 VERO. The protocol:
(b) Mammalian cell cytotoxicity assay. This was assessed against VERO cells (CCL-81, American Type Culture Collection) in a 72 h exposure, using a tetrazolium dye assay (Falzari et al., 2005).

Series [2] deals with L. donovani amastigotes (MHOM-ET-67/L82) in mouse macrophages. The experiment in a line: Leishmania donovani infected macrophage assay. The class given is cell-based. The settings on record: 96 h incubation, read-out: IC50 L. donovani macro. Here is the method:
as §1
(iii) Leishmania donovani infected macrophage assay. Freshly harvested mouse macrophages in medium (RPMI 1640 plus 10% heat inactivated fetal calf serum) were incubated at 37° C. (5% CO2) for 24 h and then infected (1:3 macrophages to amastigotes) with an axenic L. donovani amastigote culture (MHOM-ET-67/L82) in medium (SM, pH 5.4 plus 10% heat inactivated fetal calf serum). The infected macrophages were seeded at a density of 1.2×10^6/mL (by diluting in RPMI+10% FCS) in 16-well slides (Lab-tek™) and incubated at 37° C. (5% CO2) for 24 h. The medium was removed and replaced by fresh medium (RPMI 1640+10% FCS), and this was repeated following mixing. The infected macrophages were then incubated at 37° C. (5% CO2) for 96 h in either medium alone or in the presence of serial (3-fold) dilutions of test compounds (initially prepared as 10 mg/mL stock solutions in DMSO and diluted into medium). Miltefosin was employed as a standard in each assay. […], the slides were fixed (5 min in 100% MeOH) and stained (10% Giemsa, 10 min). The ratio of infected to uninfected macrophages was determined by microscopic examination, and the IC50 values were then calculated by linear regression analysis.

Series [3] has as its system Axenically grown L. donovani amastigotes (MHOM-ET-67/L82). The experiment in a line: Axenic Leishmania donovani assay. The class given is cell-based. The settings on record: 70 h incubation, read-out: IC50 L. donovani axen. The protocol: as §1
(ii) Axenic Leishmania donovani assay. Axenically grown L. donovani amastigotes (MHOM-ET-67/L82) from a healthy culture in log phase were seeded at a density of 1×10^6/mL medium (SM, pH 5.4 plus 10% heat inactivated fetal calf serum) in 96-well microtitre plates (Costar™) and incubated at 37° C. (5% CO2) for 70 h in either medium alone or in the presence of serial (3-fold) dilutions of test compounds (initially prepared as 10 mg/mL stock solutions in DMSO and diluted into medium). Miltefosin was employed as a standard in each assay. After incubation, Resazurin fluorescent dye was added to each well, and incubation was continued for an additional 2 h. The IC50 values were determined from measurements of the fluorescence data.

Series [4] in a line: Stability to mouse liver microsomes. The class given is in vitro ADME, CD-1 mouse. As to conditions: 1 μM compound, 60 min, 37° C., 0.5 mg/mL protein. Here is the method:
(§2) (a) Stability of the compounds to human and mouse microsomes. Test compounds (1 μM) were incubated at 37° C. with pooled human or CD-1 mouse liver microsome preparations (0.5 mg/mL final protein concentration) and an NADPH regenerating system (MgCl2, 3.3 mM; G6P, 3.3 mM; G6PD, 0.4 U/mL; NADP+, 1.3 mM) in phosphate buffer (75 mM, pH 7.4), with a final volume of 200 μL. The compounds were dissolved in DMSO such that the final DMSO concentration was 0.5%. Reactions were stopped at 0 and 60 min by the addition of MeCN (100 μL) containing 0.2 μM metoprolol as an internal standard. Samples were diluted 10× and centrifuged prior to analysis by LC-MS/MS using electrospray ionization and SRM monitoring using a gradient LC method. LC peak areas were integrated and expressed as analyte/IS peak area ratios (PAR), and a mean value for each time point was calculated from the duplicates. The percent remaining value was calculated as: % remaining=100×(Mean PART60/Mean PART0).
(In general: Microsomes from liver hold many membrane-bound enzymes, among them those of drug oxidation.)

A short description of series [5]: Stability to human liver microsomes. The class given is in vitro ADME. The settings on record: 1 μM compound, 60 min, 37° C., 0.5 mg/mL protein. The protocol: as §2

Usually IC50 stands for the concentration that inhibits the measured activity by half. By melting point is commonly meant the temperature of the solid-liquid transition. `CC1(COc2ccc(-c3ccc(OC(F)(F)F)cc3)cc2)Cn2cc([N+](=O)[O-])nc2O1` (stereo not shown) [Compound 12, 2-methyl-6-nitro-2-({[4′-(trifluoromethoxy)[1,1′-biphenyl]-4-yl]oxy}methyl)-2,3-dihydroimidazo[2,1-b][1,3]oxazole] had a melting point of 209 to 211 °C. Further, the IC50 in series [1] was 9.4 µg/mL (≈ 21.6 µM). Further, the “In vivo efficacy vs PA-824” value with M. tuberculosis Erdman was found to be 112. In the series with VERO cells (CCL-81), the 50% inhibitory concentration (IC50) is over 128 µM. The IC50 in series [2] was determined as 0.74 µg/mL (≈ 1.7 µM). In addition, the IC50 in series [3] was 0.016 µg/mL (≈ 0.0368 µM).

Consider `O=[N+]([O-])c1cn2c(n1)OCC(COCc1ccc(OC(F)(F)F)cc1)C2` (stereo not shown) [Compound 72, 2-nitro-6-({[4-(trifluoromethoxy)benzyl]oxy}methyl)-6,7-dihydro-5H-imidazo[2,1-b][1,3]oxazine], for which the melting point fell in the range of 92 to 93 °C. In series [1], the IC50 stood at 0.62 µg/mL (≈ 1.66 µM). Also, the IC50 with VERO cells (CCL-81) is 46 µM. Moreover, in series [2], the IC50 was found to be 0.55 µg/mL (≈ 1.47 µM). The “Microsomes (% remaining) Mouse” value in series [4] amounted to 41%. In addition, in series [5], the “Microsomes (% remaining) Human” value is given as 71%. Moreover, in series [3], the IC50 stood at 0.089 µg/mL (≈ 0.238 µM).

With `O=[N+]([O-])c1cn2c(n1)OC[C@@H](OCc1ccc(OC(F)(F)F)cc1)C2` [PA-824, reference compound], the “In vivo efficacy vs PA-824” value with M. tuberculosis Erdman turned out to be 1.00. In addition, the “log reductions in CFU” value with M. tuberculosis Erdman (lungs, vs vehicle alone-treated mice, day 31, 'up to') was 2.5-3 log. Besides, the “Microsomes (% remaining) Human” value in series [5] came to 82%.
